# Test results: US20220233743A1, “WOUND CLOSURE ENHANCEMENT METHODS AND MATERIALS VIA MANIPULATION OR AUGMENTATION OF LIPIN-1” (Board of Supervisors of Louisiana State University and …, priority 2019, published 2022)
# System: BMDMs
# Test: Central carbon analysis of IL-4 treated BMDMs
# Assay type: cell-based, mouse
# Settings: 40 ng/ml IL-4 for 4 h
# Description: BMDMs from lipin-1^mKO and littermate control mice were seeded at a density of 1×10^6/ml into Falcon tubes (60818-500; VWR). Cells were either treated with or without IL-4 (40 ng/ml) for 4 h. Cells were then collected and spun at 400×g for 5 min. Cell pellets were sent to Creative Proteomics (Shirley, N.Y.) for central carbon analysis.
# Macrophages need to align individual metabolic pathways to effectively respond to stimuli. The inventors wanted to understand the consequences of lipin-1 activity on immunometabolic responses in macrophages after stimulation with IL-4. WT and lipin-1 KO macrophages were stimulated with and without 40 ng/ml IL-4 for 4 h. Cell pellets were then sent to Creative Proteomics for central carbon analysis to determine the abundance of metabolites in major metabolic pathways, such as glycolysis, TCA cycle, and PPP. At baseline, lipin-1-deficient macrophages have an altered metabolism compared with WT macrophages. Lipin-1 KO BMDMs have multiple elevated glycolytic metabolites compared with WT BMDMs (FIGS. 10 and 43). […] The inventors also see an increase in metabolites within the PPP (FIG. 10). Upregulation of the PPP can result in increased NADPH (FIG. 10).
# The alterations in metabolism in lipin-1-deficient BMDMs at baseline were exacerbated upon stimulation with IL-4. […] The TCA cycle generates electron carriers (NADH) that are used by the electron transport chain to generate ATP as part of oxidative phosphorylation. […] Lipin-1-deficient macrophages have an increase in the initial metabolites of the PPP, 6P-gluconate. The conversion of glucose-6P to 6P-gluconate generates NADPH, which can be used in lipid synthetic pathways (FIG. 10). […] Complete central carbon analysis can be found is found below: […]
substance,measurement,setting,value
"IL-4: cytokine IL-4 (R&D Biosystems, 404-ML-050) used to stimulate macrophages; optional component of the claimed composition","6P-Gluconate, Mean",KO (lipin-1mKO) BMDMs,0.02073
same,"ADP, Mean",KO (lipin-1mKO) BMDMs,0.6171
same,"ADP-Glucose, Mean",KO (lipin-1mKO) BMDMs,0.0026
same,"AMP, Mean",KO (lipin-1mKO) BMDMs,2.121
same,"ATP, Mean",KO (lipin-1mKO) BMDMs,0.24
same,"Acetyl-CoA, Mean",KO (lipin-1mKO) BMDMs,0.00588
same,"Acetyl-Phosphate, Mean",KO (lipin-1mKO) BMDMs,0.4686
same,"Acetylglucosamine-1P, Mean",KO (lipin-1mKO) BMDMs,0.1085
same,"Acetylglucosamine-6P, Mean",KO (lipin-1mKO) BMDMs,0.4128
same,"Citrate, Mean",KO (lipin-1mKO) BMDMs,17.69
same,"DHAP, Mean",KO (lipin-1mKO) BMDMs,0.05052
same,"Erythrose-4P, Mean",KO (lipin-1mKO) BMDMs,0.03703
same,"Fructose-1,6-bisP, Mean",KO (lipin-1mKO) BMDMs,0.02422
same,"Fructose-1P, Mean",KO (lipin-1mKO) BMDMs,0.00893
same,"Fructose-6P, Mean",KO (lipin-1mKO) BMDMs,0.05762
same,"Fumarate, Mean",KO (lipin-1mKO) BMDMs,15.48
same,"GDP, Mean",KO (lipin-1mKO) BMDMs,0.1098
same,"GMP, Mean",KO (lipin-1mKO) BMDMs,14.33
same,"GTP, Mean",KO (lipin-1mKO) BMDMs,0.0303
same,"Glucosamine-6P, Mean",KO (lipin-1mKO) BMDMs,0.03932
same,"Glucose, Mean",KO (lipin-1mKO) BMDMs,70.05
same,"Glucose-1,6-bisP, Mean",KO (lipin-1mKO) BMDMs,0.04135
same,"Glucose-1P, Mean",KO (lipin-1mKO) BMDMs,0.03615
same,"Glucose-6P, Mean",KO (lipin-1mKO) BMDMs,0.09843
same,"Glyceraldehyde-3P, Mean",KO (lipin-1mKO) BMDMs,0.1128
same,"Glycerate-2,3P, Mean",KO (lipin-1mKO) BMDMs,0.00052
same,"Glycerate-2P, Mean",KO (lipin-1mKO) BMDMs,0.00902
same,"Glycerate-3P, Mean",KO (lipin-1mKO) BMDMs,0.07625
same,"Glycerol-3P, Mean",KO (lipin-1mKO) BMDMs,0.8631
same,"Glycolate, Mean",KO (lipin-1mKO) BMDMs,20.92
same,"Hs-CoA, Mean",KO (lipin-1mKO) BMDMs,0.0443
same,"Isocitrate, Mean",KO (lipin-1mKO) BMDMs,0.2094
same,"Latate, Mean",KO (lipin-1mKO) BMDMs,1872
same,"Malate, Mean",KO (lipin-1mKO) BMDMs,73.43
same,"Mannose-6P, Mean",KO (lipin-1mKO) BMDMs,0.01255
same,"NAD+, Mean",KO (lipin-1mKO) BMDMs,0.3551
same,"NADH, Mean",KO (lipin-1mKO) BMDMs,0.3515
same,"NADP+, Mean",KO (lipin-1mKO) BMDMs,0.1139
same,"NADPH, Mean",KO (lipin-1mKO) BMDMs,0.1752
same,"PEP, Mean",KO (lipin-1mKO) BMDMs,0.04492
same,"Phosphocreatine, Mean",KO (lipin-1mKO) BMDMs,0.2338
same,"Pyruvate, Mean",KO (lipin-1mKO) BMDMs,35.61
same,"Ribose-1,5bisP, Mean",KO (lipin-1mKO) BMDMs,0.00195
same,"Ribose-5P, Mean",KO (lipin-1mKO) BMDMs,0.07803
same,"Ribulose-1,5bisP, Mean",KO (lipin-1mKO) BMDMs,0.02412
same,"Ribulose-5P, Mean",KO (lipin-1mKO) BMDMs,0.1828
same,"Sedoheptulose-7P, Mean",KO (lipin-1mKO) BMDMs,0.05303
same,"Succinate, Mean",KO (lipin-1mKO) BMDMs,36.15
same,"Succinyl-CoA, Mean",KO (lipin-1mKO) BMDMs,0.0234
same,"UDP, Mean",KO (lipin-1mKO) BMDMs,0.1803
same,"UDP-Glucose, Mean",KO (lipin-1mKO) BMDMs,0.5266
same,"UDP-acetylglucosamine, Mean",KO (lipin-1mKO) BMDMs,0.9395
same,"UMP, Mean",KO (lipin-1mKO) BMDMs,16.84
same,"UTP, Mean",KO (lipin-1mKO) BMDMs,4.409
same,"cyclic-ADPR, Mean",KO (lipin-1mKO) BMDMs,0.3267
same,"cyclic-AMP, Mean",KO (lipin-1mKO) BMDMs,0.0031
same,"cyclic-UMP, Mean",KO (lipin-1mKO) BMDMs,0.00447
same,"α-Ketoglutarate, Mean",KO (lipin-1mKO) BMDMs,3.985
same,"6P-Gluconate, Mean",WT BMDMs,0.01622
same,"ADP, Mean",WT BMDMs,0.8758
same,"ADP-Glucose, Mean",WT BMDMs,0.00298
same,"AMP, Mean",WT BMDMs,2.316
same,"ATP, Mean",WT BMDMs,0.2736
same,"Acetyl-CoA, Mean",WT BMDMs,0.00738
same,"Acetyl-Phosphate, Mean",WT BMDMs,0.496
same,"Acetylglucosamine-1P, Mean",WT BMDMs,0.1361
same,"Acetylglucosamine-6P, Mean",WT BMDMs,0.5132
same,"Citrate, Mean",WT BMDMs,15.89
same,"DHAP, Mean",WT BMDMs,0.05342
same,"Erythrose-4P, Mean",WT BMDMs,0.05778
same,"Fructose-1,6-bisP, Mean",WT BMDMs,0.0196
same,"Fructose-1P, Mean",WT BMDMs,0.00392
same,"Fructose-6P, Mean",WT BMDMs,0.06408
same,"Fumarate, Mean",WT BMDMs,19.48
same,"GDP, Mean",WT BMDMs,0.1479
same,"GMP, Mean",WT BMDMs,15.29
same,"GTP, Mean",WT BMDMs,0.04348
same,"Glucosamine-6P, Mean",WT BMDMs,0.04035
same,"Glucose, Mean",WT BMDMs,53.46
same,"Glucose-1,6-bisP, Mean",WT BMDMs,0.04287
same,"Glucose-1P, Mean",WT BMDMs,0.03848
same,"Glucose-6P, Mean",WT BMDMs,0.1044
same,"Glyceraldehyde-3P, Mean",WT BMDMs,0.1365
same,"Glycerate-2,3P, Mean",WT BMDMs,0.00063
same,"Glycerate-2P, Mean",WT BMDMs,0.00803
same,"Glycerate-3P, Mean",WT BMDMs,0.0653
same,"Glycerol-3P, Mean",WT BMDMs,0.982
same,"Glycolate, Mean",WT BMDMs,19.94
same,"Hs-CoA, Mean",WT BMDMs,0.0517
same,"Isocitrate, Mean",WT BMDMs,0.1146
same,"Latate, Mean",WT BMDMs,2685
same,"Malate, Mean",WT BMDMs,87.07
same,"Mannose-6P, Mean",WT BMDMs,0.01458
same,"NAD+, Mean",WT BMDMs,0.3884
same,"NADH, Mean",WT BMDMs,0.5159
same,"NADP+, Mean",WT BMDMs,0.1431
same,"NADPH, Mean",WT BMDMs,0.1122
same,"PEP, Mean",WT BMDMs,0.03792
same,"Phosphocreatine, Mean",WT BMDMs,0.2747
same,"Pyruvate, Mean",WT BMDMs,37.78
same,"Ribose-1,5bisP, Mean",WT BMDMs,0.00238
same,"Ribose-5P, Mean",WT BMDMs,0.08472
same,"Ribulose-1,5bisP, Mean",WT BMDMs,0.02488
same,"Ribulose-5P, Mean",WT BMDMs,0.2631
same,"Sedoheptulose-7P, Mean",WT BMDMs,0.04902
same,"Succinate, Mean",WT BMDMs,52.07
same,"Succinyl-CoA, Mean",WT BMDMs,0.02933
same,"UDP, Mean",WT BMDMs,0.2351
same,"UDP-Glucose, Mean",WT BMDMs,0.5467
same,"UDP-acetylglucosamine, Mean",WT BMDMs,1.096
same,"UMP, Mean",WT BMDMs,18
same,"UTP, Mean",WT BMDMs,5.48
same,"cyclic-ADPR, Mean",WT BMDMs,0.3519
same,"cyclic-AMP, Mean",WT BMDMs,0.00362
same,"cyclic-UMP, Mean",WT BMDMs,0.00372
same,glycolytic and TCA cycle metabolites on IL-4 stimulation,WT BMDMs,significant increase
same,"α-Ketoglutarate, Mean",WT BMDMs,3.785
same,TCA metabolite succinate on IL-4 stimulation,lipin-1 KO macrophages,decrease
same,isocitrate on IL-4 stimulation,lipin-1 KO macrophages,significant increase
